From ChEMBL document CHEMBL2346656, “Anti-hepatitis B virus lignans from the root of Streblus asper” (Bioorg Med Chem Lett, 2013) come the findings set out here.

Data set [1] in a line: Cytotoxicity against human HepG2(2.2.15) cells after 12 days by MTT assay. The data set is classed as cell-based. For orientation: Tetrazolium dyes change colour on reduction, which living cells bring about.
Data set [2] has as its system Hepatitis B virus. Put plainly: Antiviral activity against Hepatitis B virus infected in human HepG2.2.15 cells assessed as inhibition of HBeAg secretion after 12 days by ELISA. The class given is functional, organism-based. As to conditions: HepG2 2.2.15, 288 h.
The nature of data set [3]: Selectivity index, ratio of CC50 for human HepG2(2.2.15) cells to IC50 for Hepatitis B virus infected in human HepG2.2.15 cells assessed as HBeAg secretion inhibition assay. The data set is classed as functional.
The test system of data set [4] is Hepatitis B virus. Put plainly: Antiviral activity against Hepatitis B virus infected in human HepG2.2.15 cells assessed as inhibition of HBsAg secretion after 12 days by ELISA. To be noted: HepG2 2.2.15, 288 h. The data set is classed as functional, organism-based. For orientation: In an ELISA, binding on a coated surface is turned into a signal by an enzyme label.

Data set [5] can be described thus: Selectivity index, ratio of CC50 for human HepG2(2.2.15) cells to IC50 for Hepatitis B virus infected in human HepG2.2.15 cells by HBsAg secretion inhibition assay. The class given is functional.
The test system of data set [6] is Hepatitis B virus. In words: Antiviral activity against Hepatitis B virus infected in human HepG2.2.15 cells assessed as inhibition of HBV DNA replication after 72 hrs by PCR analysis. The data set is classed as functional, organism-based. As to conditions: HepG2 2.2.15, 72 h.
The nature of data set [7]: Selectivity index, ratio of CC50 for human HepG2(2.2.15) cells to IC50 for Hepatitis B virus infected human HepG2.2.15 cells by DNA replication assay. The class given is functional.

A value given as a limit tells only on which side of the number the result lay.

`C=CCc1ccc(Oc2ccc(C=O)cc2O)cc1` [ISOMAGNALDEHYDE]: in data set [1], half-maximal cytotoxicity (CC50 at 288 h) was put at 186 µM. Besides, the 50% inhibitory concentration (IC50) (as a rule, the midpoint of a concentration-inhibition curve) in the data set with Hepatitis B virus [2] is 86.7 µM; in the data set on Hepatitis B virus [4], 162 µM; with Hepatitis B virus [6], > 1000 µM. Further, the “Ratio CC50/IC50” value worked out at 2.14 in data set [3] and 1.14 in data set [5].
For `C=CCc1ccc(O)c(-c2cc([C@@H](O)[C@@H](C)O)ccc2O)c1` [STREBLUSLIGNANOL], half-maximal cytotoxicity in data set [1] (CC50 at 288 h) was put at 200 µM. For the same molecule, the 50% inhibitory concentration (IC50) is 147 µM in the data set with Hepatitis B virus [2], > 1000 µM in the data set on Hepatitis B virus [4] and > 1000 µM in the data set with Hepatitis B virus [6]. For the same molecule, the “Ratio CC50/IC50” value in data set [3] turned out to be 1.36.
`C=CCc1ccc(O)c(-c2cc(C=O)ccc2O)c1` [MAGNALDEHYDE]: in data set [1], the CC50 – broadly, the concentration at which the toxic effect on the cells reaches its halfway point – at 288 h came out at 200 µM. The results for the IC50 with Hepatitis B virus [2], in the data set on Hepatitis B virus [4] and with Hepatitis B virus [6] were 41.4 µM, 109 µM and > 1000 µM, respectively. The “Ratio CC50/IC50” value in data set [3] is given as 4.83; in data set [5], 1.84.
As to `C=CCc1ccc(Oc2cc(CC=C)cc(O)c2O)cc1` [OBOVATOL], the CC50 at 288 h in data set [1] stood at 180 µM.
On to `COc1cc([C@H]2Oc3c(OC)cc(CCCO)cc3[C@@H]2CO)ccc1O` [DIHYDRODEHYDRODICONIFERY ALCOHOL], for which, in data set [1], the half-maximal cytotoxic concentration (CC50) at 288 h is 180 µM. Further, the IC50 in the data set with Hepatitis B virus [2], in the data set on Hepatitis B virus [4] and in the data set on Hepatitis B virus [6] was > 1000 µM in each case.
As to `C=CCc1ccc(O)c(-c2cc(O)ccc2O)c1` [RANDAIOL], in data set [1], it took 201 µM to reach half-maximal cytotoxicity (CC50 at 288 h). Further, the 50% inhibitory concentration (IC50) is 30.2 µM in the data set with Hepatitis B virus [2], 162 µM with Hepatitis B virus [4] and > 1000 µM with Hepatitis B virus [6]. In addition, the “Ratio CC50/IC50” value in data set [3] came out at 6.63; in data set [5] it was 1.23.
As for `C=CCc1ccc(Oc2cc(CC=C)ccc2O)cc1` [ISOMAGNOLOL], the CC50 at 288 h in data set [1] is 196 µM. The 50% inhibitory concentration (IC50) in the data set with Hepatitis B virus [2] came to 8.83 µM; in the data set on Hepatitis B virus [4], 10.3 µM; in the data set on Hepatitis B virus [6], 12.9 µM. Also, the “Ratio CC50/IC50” value in data set [7] is reported as 15.13; in data set [3], 22.14; in data set [5], 18.91.
As to `C=CCc1ccc(Oc2ccc(/C=C/C=O)cc2)c(O)c1` [ISOSTREBLUSLIGNANALDEHYDE], in data set [1], the 50% cytotoxic concentration (CC50) at 288 h is 200 µM. The figures for the half-inhibitory concentration (IC50) with Hepatitis B virus [2], with Hepatitis B virus [4] and with Hepatitis B virus [6] were 10.5 µM, 12.2 µM and 61.2 µM, respectively. Moreover, the “Ratio CC50/IC50” value was found to be 3.27 in data set [7], 19.11 in data set [3] and 16.46 in data set [5].
Consider `COc1cc([C@H]2Oc3c(OC)cc(/C=C/C(=O)O)cc3[C@@H]2CO)ccc1O` [GLYCOSMISIC ACID], for which, in data set [1], the CC50 at 288 h was 200 µM. For the same molecule, the IC50 with Hepatitis B virus [2], in the data set on Hepatitis B virus [4] and in the data set on Hepatitis B virus [6] was > 1000 µM in each case.
`C=CCc1ccc2c(c1)-c1cc([C@@H](O)[C@H](C)O)ccc1Oc1ccc(CC=C)cc1-c1cc([C@@H](O)[C@H](C)O)ccc1O2` [(7'R,8'S,7'R,8'S)-ERYTHRO-STREBLUSLIGNANOL G] returned a CC50 at 288 h in data set [1] of 118 µM. Besides, the figures for the half-maximal inhibitory concentration (IC50) in the data set with Hepatitis B virus [2], in the data set on Hepatitis B virus [4] and in the data set with Hepatitis B virus [6] were 3.24 µM, 1.58 µM and 9.02 µM, respectively. Further, the “Ratio CC50/IC50” value in data set [7] worked out at 13.12; in data set [3] it was 36.52; in data set [5], 74.9.
Turning to `C=CCc1ccc(O)c(-c2cc(C[C@@H](O)CO)ccc2O)c1` [MAGNOLIGNAN A], in data set [1], the CC50 at 288 h stood at 176 µM. In addition, the concentration for half-maximal inhibition (IC50) in the data set with Hepatitis B virus [2], with Hepatitis B virus [4] and in the data set with Hepatitis B virus [6] was > 1000 µM throughout.
In data set [1], `C=CCc1ccc(O[C@@H]2O[C@H](CO)[C@@H](O)[C@H](O)[C@H]2O)c(-c2cc(C[C@@H](O)CO)ccc2O)c1` displayed a CC50 at 288 h of 190 µM. The IC50 in the data set with Hepatitis B virus [2], in the data set on Hepatitis B virus [4] and in the data set on Hepatitis B virus [6] was > 1000 µM each time.
With `COc1cc(C2c3cc(O)c(OC)cc3C[C@@H](CO)[C@@H]2CO[C@@H]2OC[C@@H](O)[C@H](O)[C@H]2O)ccc1O` (stereo partly specified), the CC50 at 288 h in data set [1] is 210 µM. Besides, the values for the 50% inhibitory concentration (IC50) in the data set on Hepatitis B virus [2], with Hepatitis B virus [4] and with Hepatitis B virus [6] were 26.7 µM, 6.98 µM and 17.7 µM, respectively. Moreover, the “Ratio CC50/IC50” value in data set [7] came out at 11.9; in data set [3], 7.87; in data set [5] it was 30.15.
In data set [1], `C=CCc1ccc(O)c(-c2cc([C@H]3O[C@H](c4ccc(O)c(-c5cc(CC=C)ccc5O)c4)[C@@H](C)O[C@@H]3C)ccc2O)c1` [STREBLUSLIGNANOL F] yielded a cytotoxic concentration (CC50) at 288 h of 137 µM. In addition, the IC50 in the data set on Hepatitis B virus [2] was found to be 43.2 µM; in the data set with Hepatitis B virus [4], 56.9 µM; in the data set with Hepatitis B virus [6], 11.6 µM. Moreover, the “Ratio CC50/IC50” value in data set [7] turned out to be 11.87; in data set [3], 3.17; in data set [5], 2.41.
The molecule `C=CCc1ccc(O)c(-c2cc(CC=C)ccc2O)c1` [MAGNOLOL] showed a 50% cytotoxic concentration (CC50) at 288 h in data set [1] of 63.7 µM. The 50% inhibitory concentration (IC50) is 3.76 µM with Hepatitis B virus [2], 2.03 µM with Hepatitis B virus [4] and 8.67 µM with Hepatitis B virus [6]. The “Ratio CC50/IC50” value in data set [7] came to 7.34; in data set [3] it was 16.94; in data set [5], 31.37.
Regarding `COc1cc([C@H]2c3cc(O)c(OC)cc3C[C@@H](CO)[C@@H]2CO)ccc1O` [ISOLARICIRESINOL], in data set [1], the CC50 at 288 h is 129 µM. Besides, the concentration for half-maximal inhibition (IC50) is 14.7 µM in the data set with Hepatitis B virus [2], 3.67 µM in the data set on Hepatitis B virus [4] and 12.7 µM with Hepatitis B virus [6]. The entries for the “Ratio CC50/IC50” value in data set [7], in data set [3] and in data set [5] were 10.18, 8.82 and 35.28, respectively.
As to `Nc1ccn([C@@H]2CS[C@H](CO)O2)c(=O)n1` [LAMIVUDINE], in data set [1], half-maximal cytotoxicity (CC50 at 288 h) was put at 391 µM. The IC50 with Hepatitis B virus [2] turned out to be 176 µM; in the data set with Hepatitis B virus [4], 141 µM; in the data set with Hepatitis B virus [6], 99.5 µM. For the same molecule, the “Ratio CC50/IC50” value in data set [7] is 3.93; in data set [3] it was 2.22; in data set [5], 2.77.
